Reference: patent US12528826B2, “[1,4]oxazepino[2,3-c]quinolinone derivatives as BCL6 inhibitors” (Cancer Research Technology Limited, priority 2019, dated 2026)

Target: T1, Trx-6×His-BCL6 (human BCL6 BTB domain covering amino-acid sequence 5-129) (Homo sapiens, UniProt P41182)
T1 construct: made in house
Assay: HTRF assay (BCL6 / BCOR peptide)
Type: binding
Details: 1 nM Trx-6×His-BCL6, 300 nM BCOR-AF633 peptide, 2 hours incubation at room temperature
Experimental: After 2 hours incubation at room temperature the plate was read on a Pherastar FSX (BMG Labtech) plate reader equipped with 337 nm laser excitation filter, a first emission filter at 620 nm and a second emission filter at 665 nm. The % inhibition at each concentration was calculated by normalising FRET ratio to the appropriate high (DMSO with all reagents) and low (DMSO without BCL6) controls.

HTRF avg pIC50 | Molecule
8.22 | (S)-10-((5-chloro-2-((3R,4S)-3-(hydroxymethyl)-4-methylpyrrolidin-1-yl)pyrimidin-4-yl)amino)-2-cyclopropyl-3,3-difluoro-7-methyl-1,2,3,4-tetrahydro-[1,4]oxazepino[2,3-c]quinolin-6(7H)-one:(S)-10-((5-chloro-2-((3S,4R)-3-(hydroxymethyl)-4-methylpyrrolidin-1-yl)pyrimidin-4-yl)amino)-2-cyclopropyl-3,3-difluoro-7-methyl-1,2,3,4-tetrahydro-[1,4]oxazepino[2,3-c]quinolin-6(7H)-one (1:1) [Example 11j]
7.73 | Cc1nccc(Nc2ccc3c(c2)c2c(c(=O)n3C)OCC(F)(F)[C@H](C3CC3)N2)c1Cl [Example 4e, (S)-10-((3-chloro-2-methylpyridin-4-yl)amino)-2-cyclopropyl-3,3-difluoro-7-methyl-1,2,3,4-tetrahydro-[1,4]oxazepino[2,3-c]quinolin-6(7H)-one]

Same assay, conditions: 1 nM Trx-6×His-BCL6, 300 nM BCOR-AF633 peptide, 2 hours incubation at room temperature; read-out: HTRF avg pIC50 (converted)

Molecule | IC50 [nM]
Cn1c(=O)c2c(c3cc(Nc4nc(N5CC(C)(O)C5)ncc4Cl)ccc31)N[C@@H](C1CC1)C(F)(F)CO2 [Example 1n, (S)-10-((5-chloro-2-(3-hydroxy-3-methylazetidin-1-yl)pyrimidin-4-yl)amino)-2-cyclopropyl-3,3-difluoro-7-methyl-1,2,3,4-tetrahydro-[1,4]oxazepino[2,3-c]quinolin-6(7H)-one] | 13.8
COC[C@H]1CCCN1c1ncc(Cl)c(Nc2ccc3c(c2)c2c(c(=O)n3C)OCC(F)(F)[C@H](C3CC3)N2)n1 [Example 12x45b, (S)-10-((5-chloro-2-((R)-2-(methoxymethyl)pyrrolidin-1-yl)pyrimidin-4-yl)amino)-2-cyclopropyl-3,3-difluoro-7-methyl-1,2,3,4-tetrahydro-[1,4]oxazepino[2,3-c]quinolin-6(7H)-one] | 4.79
CN(C)c1ncc(F)c(Nc2ccc3c(c2)c2c(c(=O)n3C)OCC(F)(F)[C@H](C3CC3)N2)n1 [Example 13p12, (S)-2-cyclopropyl-10-((2-(dimethylamino)-5-fluoropyrimidin-4-yl)amino)-3,3-difluoro-7-methyl-1,2,3,4-tetrahydro-[1,4]oxazepino[2,3-c]quinolin-6(7H)-one] | 19.1
CC(=O)N[C@@H]1C[C@H](C)CN(c2ncc(Cl)c(Nc3ccc4c(c3)c3c(c(=O)n4C)OCC(F)(F)[C@H](C4CC4)N3)n2)C1 [Example 1g, N-((3R,5S)-1-(5-chloro-4-(((S)-2-cyclopropyl-3,3-difluoro-7-methyl-6-oxo-1,2,3,4,6,7-hexahydro-[1,4]oxazepino[2,3-c]quinolin-10-yl)amino)pyrimidin-2-yl)-5-methylpiperidin-3-yl)acetamide] | 3.16
CC1CCN1c1ncc(Cl)c(Nc2ccc3c(c2)c2c(c(=O)n3C)OCC(F)(F)[C@H](C3CC3)N2)n1 (mixture of isomers) [Example 12x36, (2S)-10-((5-chloro-2-(2-methylazetidin-1-yl)pyrimidin-4-yl)amino)-2-cyclopropyl-3,3-difluoro-7-methyl-1,2,3,4-tetrahydro-[1,4]oxazepino[2,3-c]quinolin-6(7H)-one] | 7.76
Cn1c(=O)c2c(c3cc(Nc4nc(N5C[C@@H](F)C[C@H]5CO)ncc4Cl)ccc31)N[C@@H](C1CC1)C(F)(F)CO2 [Example 12x48a, (S)-10-((5-chloro-2-((2S,4S)-4-fluoro-2-(hydroxymethyl)pyrrolidin-1-yl)pyrimidin-4-yl)amino)-2-cyclopropyl-3,3-difluoro-7-methyl-1,2,3,4-tetrahydro-[1,4]oxazepino[2,3-c]quinolin-6(7H)-one] | 4.27
CC1CCN(c2ncc(Cl)c(Nc3ccc4c(c3)c3c(c(=O)n4C)OCC(F)(F)[C@H](C4CC4)N3)n2)C1CO (stereo partly drawn) [Example 12x49, (2S)-10-((5-chloro-2-(2-(hydroxymethyl)-3-methylpyrrolidin-1-yl)pyrimidin-4-yl)amino)-2-cyclopropyl-3,3-difluoro-7-methyl-1,2,3,4-tetrahydro-[1,4]oxazepino[2,3-c]quinolin-6(7H)-one] | 6.31
CC1CC(CC(=O)N2CC(F)(F)C2)CN(c2ncc(Cl)c(Nc3ccc4c(c3)c3c(c(=O)n4C)OCC(F)(F)[C@H](C4CC4)N3)n2)C1 (single isomer, unassigned) [Example 12x17a] | 3.98
C[C@H]1C[C@@H](O)CN(c2cc(Nc3ccc4c(c3)c3c(c(=O)n4C)OCC(F)(F)[C@H](C4CC4)N3)c(F)cn2)C1 [Example 13f05, (S)-2-cyclopropyl-3,3-difluoro-10-((5-fluoro-2-((3R,5S)-3-hydroxy-5-methylpiperidin-1-yl)pyridin-4-yl)amino)-7-methyl-1,2,3,4-tetrahydro-[1,4]oxazepino[2,3-c]quinolin-6(7H)-one] | 6.61

Other lines, results leading:

IC50 [nM] | Molecule
3.89 | Cn1c(=O)c2c(c3cc(Nc4nc(N5CC(C)(C#N)C5)ncc4Cl)ccc31)N[C@@H](C1CC1)C(F)(F)CO2 [Example 11s, (S)-1-(5-chloro-4-((2-cyclopropyl-3,3-difluoro-7-methyl-6-oxo-1,2,3,4,6,7-hexahydro-[1,4]oxazepino[2,3-c]quinolin-10-yl)amino)pyrimidin-2-yl)-3-methylazetidine-3-carbonitrile]
20.9 | Cn1c(=O)c2c(c3cc(Nc4nc(N5CC[C@@H](F)[C@@H](F)C5)ncc4F)ccc31)N[C@@H](C1CC1)C(F)(F)CO2 (racemic) [Example 10d, (S)-10-((5-fluoro-2-((3S,4R)-3,4-difluoropiperidin-1-yl)pyrimidin-4-yl)amino)-2-cyclopropyl-3,3-difluoro-7-methyl-1,2,3,4-tetrahydro-[1,4]oxazepino[2,3-c]quinolin-6(7H)-one; (S)-10-((5-fluoro-2-((3R,4S)-3,4-difluoropiperidin-1-yl)pyrimidin-4-yl)amino)-2-cyclopropyl-3,3-difluoro-7-methyl-1,2,3,4-tetrahydro-[1,4]oxazepino[2,3-c]quinolin-6(7H)-one]
9.55 | CC1CN(c2ncc(Cl)c(Nc3ccc4c(c3)c3c(c(=O)n4C)OCC(F)(F)[C@H](C4CC4)N3)n2)CCS1 (mixture of isomers) [Example 12f, (S)-10-((5-chloro-2-((R)-2-methylthiomorpholino)pyrimidin-4-yl)amino)-2-cyclopropyl-3,3-difluoro-7-methyl-1,2,3,4-tetrahydro-[1,4]oxazepino[2,3-c]quinolin-6(7H)-one:(S)-10-((5-chloro-2-((S)-2-methylthiomorpholino)pyrimidin-4-yl)amino)-2-cyclopropyl-3,3-difluoro-7-methyl-1,2,3,4-tetrahydro-[1,4]oxazepino[2,3-c]quinolin-6(7H)-one (1:1)]
64.6 | CC1CCCN(c2ncc(Cl)c(Nc3ccc4c(c3)c3c(c(=O)n4C)OCC(F)(F)[C@H](C4CC4)N3)n2)CC1 (mixture of isomers) [Example 11d, (S)-10-((5-chloro-2-((R)-4-methylazepan-1-yl)pyrimidin-4-yl)amino)-2-cyclopropyl-3,3-difluoro-7-methyl-1,2,3,4-tetrahydro-[1,4]oxazepino[2,3-c]quinolin-6(7H)-one:(S)-10-((5-chloro-2-((S)-4-methylazepan-1-yl)pyrimidin-4-yl)amino)-2-cyclopropyl-3,3-difluoro-7-methyl-1,2,3,4-tetrahydro-[1,4]oxazepino[2,3-c]quinolin-6(7H)-one (1:1)]
6.76 | C[C@H]1C[C@@H](O)CN(c2cc(Nc3ccc4c(c3)c3c(c(=O)n4C)OCC(F)(F)[C@H](C4CC4)N3)c(Cl)cn2)C1 [Example 13a, (S)-10-((5-chloro-2-((3R,5S)-3-hydroxy-5-methylpiperidin-1-yl)pyridin-4-yl)amino)-2-cyclopropyl-3,3-difluoro-7-methyl-1,2,3,4-tetrahydro-[1,4]oxazepino[2,3-c]quinolin-6(7H)-one]
3.47 | CCNC(=O)[C@@H]1C[C@H](C)CN(c2ncc(Cl)c(Nc3ccc4c(c3)c3c(c(=O)n4C)OCC(F)(F)[C@H](C4CC4)N3)n2)C1 (racemic) [Example 9c, (3R,5S)-1-(5-chloro-4-(((S)-2-cyclopropyl-3,3-difluoro-7-methyl-6-oxo-1,2,3,4,6,7-hexahydro-[1,4]oxazepino[2,3-c]quinolin-10-yl)amino)pyrimidin-2-yl)-N-ethyl-5-methylpiperidine-3-carboxamide; (3S,5R)-1-(5-chloro-4-(((S)-2-cyclopropyl-3,3-difluoro-7-methyl-6-oxo-1,2,3,4,6,7-hexahydro-[1,4]oxazepino[2,3-c]quinolin-10-yl)amino)pyrimidin-2-yl)-N-ethyl-5-methylpiperidine-3-carboxamide]
4.07 | Cn1c(=O)c2c(c3cc(Nc4nc(N5CC(C#N)C5)ncc4Cl)ccc31)N[C@@H](C1CC1)C(F)(F)CO2 [Example 11p, (S)-1-(5-chloro-4-((2-cyclopropyl-3,3-difluoro-7-methyl-6-oxo-1,2,3,4,6,7-hexahydro-[1,4]oxazepino[2,3-c]quinolin-10-yl)amino)pyrimidin-2-yl)azetidine-3-carbonitrile]
4.27 | CCN(CC1CN(c2ncc(Cl)c(Nc3ccc4c(c3)c3c(c(=O)n4C)OCC(F)(F)[C@H](C4CC4)N3)n2)CCC1(F)F)C(C)=O (mixture of isomers) [Example 9k]
30.9 | Cn1c(=O)c2c(c3cc(Nc4cc(N5CCC(F)(F)CC5)ncc4Cl)ccc31)N[C@@H](C1CC1)C(F)(F)CO2 [Example 13b]
